Test results: the supplement of paper PMC10307832

Experiments:
Assay in all cases: relative viability (nuclei count vs DMSO), 5 days (fraction); higher = more cells survive
Dinaciclib + Crizotinib = compound: CCc1cnn2c(NCc3ccc[n+]([O-])c3)cc(N3CCCC[C@H]3CCO)nc12 [Dinaciclib] + C[C@@H](Oc1cc(-c2cnn(C3CCNCC3)c2)cnc1N)c1c(Cl)ccc(F)c1Cl [Crizotinib] (partner 1 µM)
In short: (§1)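 Lung cancer cell lines, seeded in 1536-well plates, were treated the following day by pin tool with a single drug or with five library-drug doses (not always all listed) in √10 steps on top of a fixed anchor-drug dose. Cells were fixed and nuclei stained in one step after 5 days, and nuclei were counted. Relative viability is the nuclei count for treated wells divided by that for vehicle wells, reported as medians of duplicate plates.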

Dinaciclib + Luminespib = compound: CCc1cnn2c(NCc3ccc[n+]([O-])c3)cc(N3CCCC[C@H]3CCO)nc12 [Dinaciclib] + CCNC(=O)c1noc(-c2cc(C(C)C)c(O)cc2O)c1-c1ccc(CN2CCOCC2)cc1 [Luminespib] (partner 0.01 µM)
In short: as §1

Dinaciclib + Vorinostat = compound: CCc1cnn2c(NCc3ccc[n+]([O-])c3)cc(N3CCCC[C@H]3CCO)nc12 [Dinaciclib] + O=C(CCCCCCC(=O)Nc1ccccc1)NO [Vorinostat] (partner 1 µM)
In short: as §1

Dinaciclib = compound: CCc1cnn2c(NCc3ccc[n+]([O-])c3)cc(N3CCCC[C@H]3CCO)nc12 [Dinaciclib]
In short: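 Lung cancer cell lines in 1536-well plates were exposed by pinning to five library-drug doses (not always all listed) √10 apart, following an overnight hold at 37 °C. MetaXpress counted Hoechst-stained nuclei from 4× images taken after 5 days without medium change. Viability is the median ratio of treated-well to vehicle-well nuclei across plates. Plates required control CV below 25% and at least one doubling.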

Dinaciclib + Linsitinib = compound: CCc1cnn2c(NCc3ccc[n+]([O-])c3)cc(N3CCCC[C@H]3CCO)nc12 [Dinaciclib] + C[C@]1(O)C[C@@H](c2nc(-c3ccc4ccc(-c5ccccc5)nc4c3)c3c(N)nccn32)C1 [Linsitinib] (partner 1 µM)
In short: as §1

Cell Line: ChaGo-K-1
- relative viability (Dinaciclib + Crizotinib; first compound 0.009487 µM): 0.699
- relative viability (Dinaciclib + Crizotinib; first compound 0.03 µM): 0.229
- relative viability (Dinaciclib + Crizotinib; first compound 0.09487 µM): 0.224
- relative viability (Dinaciclib + Crizotinib; first compound 0.3 µM): 0.214
- relative viability (Dinaciclib + Luminespib; first compound 0.009487 µM): 0.342
- relative viability (Dinaciclib + Luminespib; first compound 0.03 µM): 0.182
- relative viability (Dinaciclib + Luminespib; first compound 0.09487 µM): 0.123
- relative viability (Dinaciclib + Luminespib; first compound 0.3 µM): 0.0984
- relative viability (Dinaciclib + Vorinostat; first compound 0.009487 µM): 0.803
- relative viability (Dinaciclib + Vorinostat; first compound 0.03 µM): 0.197
- relative viability (Dinaciclib + Vorinostat; first compound 0.09487 µM): 0.139
- relative viability (Dinaciclib + Vorinostat; first compound 0.3 µM): 0.112
- relative viability (Dinaciclib; 0.009487 µM): 0.95
- relative viability (Dinaciclib; 0.03 µM): 0.246
- relative viability (Dinaciclib; 0.09487 µM): 0.203
- relative viability (Dinaciclib; 0.3 µM): 0.146

Cell Line: EKVX
- relative viability (Dinaciclib + Crizotinib; first compound 0.009487 µM): 0.749
- relative viability (Dinaciclib + Crizotinib; first compound 0.03 µM): 0.454
- relative viability (Dinaciclib + Crizotinib; first compound 0.09487 µM): 0.103
- relative viability (Dinaciclib + Crizotinib; first compound 0.3 µM): 0.118
- relative viability (Dinaciclib + Linsitinib; first compound 0.009487 µM): 0.961
- relative viability (Dinaciclib + Linsitinib; first compound 0.03 µM): 0.51
- relative viability (Dinaciclib + Linsitinib; first compound 0.09487 µM): 0.0946
- relative viability (Dinaciclib + Linsitinib; first compound 0.3 µM): 0.137
- relative viability (Dinaciclib + Luminespib; first compound 0.009487 µM): 0.858
- relative viability (Dinaciclib + Luminespib; first compound 0.03 µM): 0.705
- relative viability (Dinaciclib + Luminespib; first compound 0.09487 µM): 0.137
- relative viability (Dinaciclib + Luminespib; first compound 0.3 µM): 0.101
- relative viability (Dinaciclib + Vorinostat; first compound 0.009487 µM): 0.612
- relative viability (Dinaciclib + Vorinostat; first compound 0.03 µM): 0.472
- relative viability (Dinaciclib + Vorinostat; first compound 0.09487 µM): 0.167
- relative viability (Dinaciclib + Vorinostat; first compound 0.3 µM): 0.226
- relative viability (Dinaciclib; 0.009487 µM): 0.996
- relative viability (Dinaciclib; 0.03 µM): 0.601
- relative viability (Dinaciclib; 0.09487 µM): 0.184
- relative viability (Dinaciclib; 0.3 µM): 0.13

Cell Line: EMC-BAC-2
- relative viability (Dinaciclib + Crizotinib; first compound 0.009487 µM): 0.71
- relative viability (Dinaciclib + Crizotinib; first compound 0.03 µM): 0.187
- relative viability (Dinaciclib + Crizotinib; first compound 0.09487 µM): 0.146
- relative viability (Dinaciclib + Crizotinib; first compound 0.3 µM): 0.15
- relative viability (Dinaciclib + Linsitinib; first compound 0.009487 µM): 0.868
- relative viability (Dinaciclib + Linsitinib; first compound 0.03 µM): 0.235
- relative viability (Dinaciclib + Linsitinib; first compound 0.09487 µM): 0.14
- relative viability (Dinaciclib + Linsitinib; first compound 0.3 µM): 0.161
- relative viability (Dinaciclib + Luminespib; first compound 0.009487 µM): 1.15
- relative viability (Dinaciclib + Luminespib; first compound 0.03 µM): 0.382
- relative viability (Dinaciclib + Luminespib; first compound 0.09487 µM): 0.145
- relative viability (Dinaciclib + Luminespib; first compound 0.3 µM): 0.16
- relative viability (Dinaciclib + Vorinostat; first compound 0.009487 µM): 0.36
- relative viability (Dinaciclib + Vorinostat; first compound 0.03 µM): 0.166
- relative viability (Dinaciclib + Vorinostat; first compound 0.09487 µM): 0.152
- relative viability (Dinaciclib + Vorinostat; first compound 0.3 µM): 0.143
- relative viability (Dinaciclib; 0.009487 µM): 0.951
- relative viability (Dinaciclib; 0.03 µM): 0.413
- relative viability (Dinaciclib; 0.09487 µM): 0.224
- relative viability (Dinaciclib; 0.3 µM): 0.197

Cell Line: EPLC-272H
- relative viability (Dinaciclib + Crizotinib; first compound 0.009487 µM): 0.853
- relative viability (Dinaciclib + Crizotinib; first compound 0.03 µM): 0.484
- relative viability (Dinaciclib + Crizotinib; first compound 0.09487 µM): 0.0554
- relative viability (Dinaciclib + Crizotinib; first compound 0.3 µM): 0.0387
- relative viability (Dinaciclib + Linsitinib; first compound 0.009487 µM): 1.29
- relative viability (Dinaciclib + Linsitinib; first compound 0.03 µM): 0.665
- relative viability (Dinaciclib + Linsitinib; first compound 0.09487 µM): 0.33
- relative viability (Dinaciclib + Linsitinib; first compound 0.3 µM): 0.0559
- relative viability (Dinaciclib + Luminespib; first compound 0.009487 µM): 0.2
- relative viability (Dinaciclib + Luminespib; first compound 0.03 µM): 0.0547
- relative viability (Dinaciclib + Luminespib; first compound 0.09487 µM): 0.042
- relative viability (Dinaciclib + Luminespib; first compound 0.3 µM): 0.0355
- relative viability (Dinaciclib + Vorinostat; first compound 0.009487 µM): 0.242
- relative viability (Dinaciclib + Vorinostat; first compound 0.03 µM): 0.0369
- relative viability (Dinaciclib + Vorinostat; first compound 0.09487 µM): 0.0282
- relative viability (Dinaciclib + Vorinostat; first compound 0.3 µM): 0.0401
- relative viability (Dinaciclib; 0.009487 µM): 0.855
- relative viability (Dinaciclib; 0.03 µM): 0.0817
- relative viability (Dinaciclib; 0.09487 µM): 0.0396
- relative viability (Dinaciclib; 0.3 µM): 0.0347

Cell Line: H3255
- relative viability (Dinaciclib + Crizotinib; first compound 0.009487 µM): 0.842
- relative viability (Dinaciclib + Crizotinib; first compound 0.03 µM): 0.194
- relative viability (Dinaciclib + Crizotinib; first compound 0.09487 µM): 0.173
- relative viability (Dinaciclib + Crizotinib; first compound 0.3 µM): 0.197
- relative viability (Dinaciclib + Linsitinib; first compound 0.009487 µM): 1.09
- relative viability (Dinaciclib + Linsitinib; first compound 0.03 µM): 0.493
- relative viability (Dinaciclib + Linsitinib; first compound 0.09487 µM): 0.177
- relative viability (Dinaciclib + Linsitinib; first compound 0.3 µM): 0.186
- relative viability (Dinaciclib + Luminespib; first compound 0.009487 µM): 0.813
- relative viability (Dinaciclib + Luminespib; first compound 0.03 µM): 0.72
- relative viability (Dinaciclib + Luminespib; first compound 0.09487 µM): 0.204
- relative viability (Dinaciclib + Luminespib; first compound 0.3 µM): 0.18
- relative viability (Dinaciclib + Vorinostat; first compound 0.009487 µM): 0.705
- relative viability (Dinaciclib + Vorinostat; first compound 0.03 µM): 0.51
- relative viability (Dinaciclib + Vorinostat; first compound 0.09487 µM): 0.211
- relative viability (Dinaciclib + Vorinostat; first compound 0.3 µM): 0.205
- relative viability (Dinaciclib; 0.009487 µM): 0.928
- relative viability (Dinaciclib; 0.03 µM): 0.56
- relative viability (Dinaciclib; 0.09487 µM): 0.219
- relative viability (Dinaciclib; 0.3 µM): 0.196

Cell Line: HARA
- relative viability (Dinaciclib + Crizotinib; first compound 0.009487 µM): 0.717
- relative viability (Dinaciclib + Crizotinib; first compound 0.03 µM): 0.103
- relative viability (Dinaciclib + Crizotinib; first compound 0.09487 µM): 0.0536
- relative viability (Dinaciclib + Crizotinib; first compound 0.3 µM): 0.0685
- relative viability (Dinaciclib + Linsitinib; first compound 0.009487 µM): 0.758
- relative viability (Dinaciclib + Linsitinib; first compound 0.03 µM): 0.0716
- relative viability (Dinaciclib + Linsitinib; first compound 0.09487 µM): 0.0363
- relative viability (Dinaciclib + Linsitinib; first compound 0.3 µM): 0.038
- relative viability (Dinaciclib + Luminespib; first compound 0.009487 µM): 0.367
- relative viability (Dinaciclib + Luminespib; first compound 0.03 µM): 0.0789
- relative viability (Dinaciclib + Luminespib; first compound 0.09487 µM): 0.0403
- relative viability (Dinaciclib + Luminespib; first compound 0.3 µM): 0.0571
- relative viability (Dinaciclib + Vorinostat; first compound 0.009487 µM): 0.527
- relative viability (Dinaciclib + Vorinostat; first compound 0.03 µM): 0.331
- relative viability (Dinaciclib + Vorinostat; first compound 0.09487 µM): 0.0816
- relative viability (Dinaciclib + Vorinostat; first compound 0.3 µM): 0.0937
- relative viability (Dinaciclib; 0.009487 µM): 0.912
- relative viability (Dinaciclib; 0.03 µM): 0.18
- relative viability (Dinaciclib; 0.09487 µM): 0.088
- relative viability (Dinaciclib; 0.3 µM): 0.0759

Cell Line: HCC-15
- relative viability (Dinaciclib + Crizotinib; first compound 0.009487 µM): 0.618
- relative viability (Dinaciclib + Crizotinib; first compound 0.03 µM): 0.098
- relative viability (Dinaciclib + Crizotinib; first compound 0.09487 µM): 0.0953
- relative viability (Dinaciclib + Crizotinib; first compound 0.3 µM): 0.0947
- relative viability (Dinaciclib + Linsitinib; first compound 0.009487 µM): 0.76
- relative viability (Dinaciclib + Linsitinib; first compound 0.03 µM): 0.171
- relative viability (Dinaciclib + Linsitinib; first compound 0.09487 µM): 0.113
- relative viability (Dinaciclib + Linsitinib; first compound 0.3 µM): 0.101
- relative viability (Dinaciclib + Luminespib; first compound 0.009487 µM): 0.122
- relative viability (Dinaciclib + Luminespib; first compound 0.03 µM): 0.1
- relative viability (Dinaciclib + Luminespib; first compound 0.09487 µM): 0.102
- relative viability (Dinaciclib + Luminespib; first compound 0.3 µM): 0.141
- relative viability (Dinaciclib + Vorinostat; first compound 0.009487 µM): 0.715
- relative viability (Dinaciclib + Vorinostat; first compound 0.03 µM): 0.355
- relative viability (Dinaciclib + Vorinostat; first compound 0.09487 µM): 0.121
- relative viability (Dinaciclib + Vorinostat; first compound 0.3 µM): 0.124
- relative viability (Dinaciclib; 0.009487 µM): 0.772
- relative viability (Dinaciclib; 0.03 µM): 0.154
- relative viability (Dinaciclib; 0.09487 µM): 0.114
- relative viability (Dinaciclib; 0.3 µM): 0.114

Cell Line: HCC-44
- relative viability (Dinaciclib + Crizotinib; first compound 0.009487 µM): 0.741
- relative viability (Dinaciclib + Crizotinib; first compound 0.03 µM): 0.133
- relative viability (Dinaciclib + Crizotinib; first compound 0.09487 µM): 0.118
- relative viability (Dinaciclib + Crizotinib; first compound 0.3 µM): 0.112
- relative viability (Dinaciclib + Linsitinib; first compound 0.009487 µM): 0.461
- relative viability (Dinaciclib + Linsitinib; first compound 0.03 µM): 0.119
- relative viability (Dinaciclib + Linsitinib; first compound 0.09487 µM): 0.122
- relative viability (Dinaciclib + Linsitinib; first compound 0.3 µM): 0.103
- relative viability (Dinaciclib + Luminespib; first compound 0.009487 µM): 0.61
- relative viability (Dinaciclib + Luminespib; first compound 0.03 µM): 0.2
- relative viability (Dinaciclib + Luminespib; first compound 0.09487 µM): 0.179
- relative viability (Dinaciclib + Luminespib; first compound 0.3 µM): 0.17
- relative viability (Dinaciclib + Vorinostat; first compound 0.009487 µM): 1.24
- relative viability (Dinaciclib + Vorinostat; first compound 0.03 µM): 1.04
- relative viability (Dinaciclib + Vorinostat; first compound 0.09487 µM): 0.368
- relative viability (Dinaciclib + Vorinostat; first compound 0.3 µM): 0.319
- relative viability (Dinaciclib; 0.009487 µM): 0.973
- relative viability (Dinaciclib; 0.03 µM): 0.443
- relative viability (Dinaciclib; 0.09487 µM): 0.176
- relative viability (Dinaciclib; 0.3 µM): 0.147
